Reference: ChEMBL document CHEMBL1129004, “Synthesis and in vitro cytotoxicity of cis-(glycolato-O,O)-[2-substituted-(4R,5R)-4,5-bis(aminomethyl)-1,3-dioxolane]platinum (II)” (Bioorg Med Chem Lett, 1996)

Assays:
Format in all cases: functional, cell-based
[1] = system: KATO III stomach cancer cell line; test: Compound was tested in vitro for cytotoxic activity against KATO III human stomach cancer cell line by MTT assay
PC-14 = test: Compound was tested in vitro for cytotoxic activity against PC-14 human non-small cell lung cancer cell line by MTT assay
MKN-45 = test: Compound was tested in vitro for cytotoxic activity against MKN-45 human stomach cancer cell line by MTT assay
PC-9 = test: Compound was tested in vitro for cytotoxic activity against PC-9 human non-small cell lung cancer cell line by MTT assay

Row | Sequence | IC50 [1] [µM] | IC50 (PC-14) [µM] | IC50 (MKN-45) [µM] | IC50 (PC-9) [µM]
1 | CISPLATIN | 5.2 | 1.5 | 3.7 | 5
2 | CARBOPLATIN | 49.7 | 9.7 | 32.4 | 60.5
